Experimental data reported in patent US4124726A, “Anti-inflammatory agent of benzoyl derivative” (priority 1976, dated 1978).

Assays:
[1] = test system: platelet aggregation; assay: blood platelet aggregation inhibition, collagen as inducer; assay type: cell-based; details: 10^-4 mole, rabbit PRP
From the text: Blood platelet aggregation inhibiting effect
Male rabbits (Japan original white strain 3.3 to 3.6 kg) were anesthetized with Thiopental sodium and blood was sampled from the carotid artery.

[2] = test system: carragheenin edema; assay: acute carragheenin edema inhibition (anti-inflammatory effect); assay type: in vivo, male rats; details: carragheenin edema, rats, Table 2; for ED50: Rattus norvegicus, oral, read-out: 50% inhibition rate ED50; for Anti-inf. (edema inhibition rate): 100 mg/kg oral
Procedure: The edema was induced by subcutaneous injection of 1% carraheenin suspension in saline to the hind paws of male rats weighing 150 to 180 g. Each sample was orally given at the dosage of 100 mg/kg just before the inoculation of carragheenin.

[3] = in vivo; details: mouse, po
Procedure: Each sample was dissolved in olive oil or dispersed in 1% Tween 20 aqueous solution.

[4] = test system: painful stretchings induced by acetic acid; assay: acetic acid induced stretching (analgesic effect); details: 100 mg/kg oral, 0.7% acetic acid i.p., mice
Procedure: Each sample was orally administrated in the dosage of 100 mg/kg before injection of acetic acid.

[5] = test system: thrombosis; assay: inhibiting effect on thrombosis (arterio-venous by-pass, silk thread); assay type: in vivo, SD type male rats; details: 100 mg/kg oral, 5 hours before first circulation, rats; for inhibition in vivo at 100 mg/kg: Rattus norvegicus, read-out: Thrombosis inh.
Procedure: Inhibiting effect on thrombosis:
The inhibiting effects of the samples of the invention on thrombosis were tested by the following test method.
A 0.5 ml of 50 μ/ml of the heparin physiological saline was added through the polyethylene tube before the first blood circulation. After the blood circulation for 15 minutes, the circulation was stopped in the middle of the tubing at artery side with a pinch cock.
Then, 0.2 ml of the heparin physiological saline was added to remove the blood coagulates on the tubing wall and another new polyethylene tubing filled with the heparin solution and containing a piece of new silk thread was attached between the venous and artery tubing ends.
The blood circulation was reestablished by opening the pinch cock. After 15 minutes, the wet weight of thrombus on the silk thread was similarly measured. In the same manner, the third circulation was performed and wet weight of thrombus measured.
The amount of thrombus was given by the equation A. [formula] Each sample was suspended in an aqueous solution of sodium carboxymethyl cellulose and the oral dose of the suspension (100 mg/kg) was performed at 5 hours before the first blood circulation. The amount of thrombus after the oral dose of the sample was calculated in the same manner as that of control circulations.
The thrombosis inhibition rate was given by the equation B. [formula]

| Compound | Blood platelet agg. inh. (percentage inhibition of platelet aggregation) [1] [%] | ED50 [2] [mg/kg] | LD50 at 72 h [3] [mg/kg] | Analgesic (percentage diminution of times of painful stretchings) [4] [%] | inhibition in vivo at 100 mg/kg [5] [%] | Anti-inf. (edema inhibition rate) [2] [%] | Thrombosis inh. [5] [%] |
| --- | --- | --- | --- | --- | --- | --- | --- |
| CCCc1ccc(C(=O)c2ccccc2F)cc1 [compound 7] | 23.0 | 78 | 1500 | 15.0 | – | – | – |
| CCCCc1ccc(C(=O)c2ccccc2F)cc1 [compound 8] | 24.0 | 38 | – | 14.8 | 38 | – | – |
| CCCCCc1ccc(C(=O)c2ccccc2F)cc1 [compound 9] | 14.6 | 22 | 3000 | 15.3 | – | – | – |
| Cc1ccc(C(=O)c2ccccc2F)c(C)c1 [compound 10] | 18.5 | 90 | 500 | 20.3 | – | – | – |
| Cc1cc(C)c(C(=O)c2ccccc2F)c(C)c1 [compound 11] | 16.5 | 22 | 500 | 13.9 | – | – | – |
| CCc1cc(CC)c(C(=O)c2ccccc2)c(CC)c1 [compound 13] | 14.3 | > 400 | 2000 | 15.8 | – | – | – |
| Cc1cc(C)c(C(=O)c2ccc(Cl)cc2)c(C)c1 [compound 14] | 18.1 | 130 | 500 | 19.2 | – | – | – |
| O=C(c1ccccc1)c1ccccc1F [compound 15] | 23.2 | 65 | 4000 | 18.5 | – | – | – |
| CCCc1ccc(CCC)c(C(=O)c2ccccc2)c1 [compound 16] | 8.6 | 140 | 1500 | 12.4 | – | – | – |
| CCCCc1ccc(CCCC)c(C(=O)c2ccc(C)cc2)c1 [compound 17] | 17.3 | 180 | 2000 | 10.3 | – | – | – |
| CCCc1ccc(C(=O)c2ccccc2)cc1 [compound 20] | 36.6 | – | 2000 | 17.3 | 4.1 | – | – |
| CC(C)c1ccc(C(=O)c2ccccc2)cc1 [compound 21] | 8.6 | – | 2000 | 16.1 | 5.4 | – | – |
| CC(C)(C)c1ccc(C(=O)c2ccccc2)cc1 [compound 22] | 9.5 | – | 2000 | 8.2 | 7.9 | – | – |
| CCCCc1ccc(C(=O)C(=O)c2ccccc2)cc1 [compound 29] | 11.1 | 130 | 10000 | 2.7 | – | – | – |
| Cc1cc(C)c(C(=O)c2ccccc2)cc1C [compound 32] | 12.4 | – | 2000 | 26.2 | 25 | – | – |
| CCCCc1ccc(C(=O)c2ccc(C)cc2)cc1 [compound 35] | 11.3 | – | > 10000 | – | 26.5 | – | – |
| Cc1ccc(C(=O)c2ccccc2)c(C)c1 [compound 37] | 17.4 | – | 1000 | 9.8 | 5.3 | – | – |

| Compound | Blood platelet agg. inh. (percentage inhibition of platelet aggregation) [1] [%] | ED50 [2] [mg/kg] | LD50 at 72 h [3] [mg/kg] | Analgesic (percentage diminution of times of painful stretchings) [4] [%] | inhibition in vivo at 100 mg/kg [5] [%] | Anti-inf. (edema inhibition rate) [2] [%] | Thrombosis inh. [5] [%] |
| --- | --- | --- | --- | --- | --- | --- | --- |
| CCCCc1ccc(C(=O)c2ccccc2C)cc1 [compound 40] | 11.9 | 120 | 2000 | 20.3 | – | – | – |
| CCCCc1ccc(C(=O)c2ccc(CCCC)cc2)cc1 [compound 43] | 3.5 | – | > 10000 | – | 86 | – | – |
| CCCCc1ccc(C(=O)c2ccccc2Cl)cc1 [compound 44] | 10.5 | 70 | 2000 | 15.6 | – | – | – |
| CCCCCc1ccc(C(=O)c2ccc(OC)cc2)cc1 [compound 45] | 17.7 | > 400 | 5000 | 12.5 | – | – | – |
| CCCCc1ccc(C(=O)c2ccc(F)cc2C)cc1 [compound 46] | 16.5 | 400 | 2000 | 13.4 | – | – | – |
| O=C(Cc1ccccc1)c1ccccc1 [compound 47] | 18.3 | – | – | 13.1 | – | 20.9 | 15.6 |
| O=C(C(=O)c1ccccc1)c1ccccc1 [compound 53] | 10.1 | – | – | 14.2 | – | 20.3 | 19.2 |
| COc1ccc(C(=O)Cc2ccccc2)cc1 [compound 57] | 12.5 | – | – | – | 6.5 | – | – |
| CCCCOc1ccc(C(=O)Cc2ccc(Cl)cc2)cc1 [compound 61] | 15.8 | – | – | – | 8.5 | – | – |
| CCCCCCOc1ccc(C(=O)Cc2ccc(Cl)cc2)cc1 [compound 62] | 12.3 | – | – | – | 7.8 | – | – |
| CCCc1ccc(C(=O)c2ccc(Cl)cc2)cc1 [compound 63] | 15.6 | – | – | – | 6.2 | – | – |
| CCCCCCCCCc1ccc(C(=O)c2ccccc2)cc1 [compound 70] | 17.2 | – | – | – | 10 | – | – |
| CCCCCc1ccc(C(=O)c2ccc(C)cc2)cc1 [compound 84] | 8.6 | – | 10000 | 15.3 | 16 | – | – |
| CCCc1ccc(C(=O)c2ccccc2C)cc1 [compound 90] | 10.8 | – | – | – | 15 | – | – |
| Cc1ccccc1C(=O)c1c(C)c(C)cc(C)c1C [compound 91] | 14.7 | – | – | – | 31 | – | – |
| CCc1ccc(C(=O)c2ccc(OC)cc2)cc1 [compound 107] | 20.3 | – | – | – | – | 20.3 | – |
